We go through three molecules from patent publication US9005969B2, “Generation of novel bone forming cells (monoosteophils) from LL-37 treated monocytes” (City of Hope, priority 2010, dated 2015).

Data set [1] has as its system monocytes. Kind of data set: Cytokine multiplex analysis of supernatants of differentiated monocytes. It counts as cell-based, human. Details: GM-CSF release / MIP-1α release / MIP-1β release / MIG release / RANTES release / MCP-1 release / IL-2R release / VEGF release / G-CSF release / HGF release / FGF-Basic release / IL-4 release / IL-7 release / IFN-α release / IFN-γ release: unit not given here. To be noted: for FGF-Basic release / G-CSF release / HGF release / IFN-α release / IFN-γ release / IL-2R release / IL-4 release / IL-7 release / MCP-1 release / MIG release / MIP-1α release / MIP-1β release / RANTES release / VEGF release / GM-CSF release: supernatant, monocytes differentiated 6 days, Mean ± SEM. The text has this:
(§1) This study was approved by the Institutional Human Subject's Review Board (City of Hope National Medical Center). Peripheral blood mononuclear cells (PBMCs) were isolated from citrated blood by centrifugation over Ficoll-Paque Plus (GE healthcare biosciences, Pittsburgh, Pa., USA) density gradient. Monocytes were separated using EasySep® Human Monocyte Enrichment Kit (StemCell Technologies Inc, Vancouver, Canada) from PBMCs. The purified monocytes were stained with anti-CD14-FITC and checked by using flow cytometry FACSCanton II. Monocytes with >95% purity were suspended at 1×10^6 cells/mL in RPMI 1640 medium supplement with 10% FBS (FBS contained <5 pg/100 mL LPS).
(§2) After isolation of monocytes as described in the examples above, monocytes were treated with serial dose of LL-37 (0.625 μM, 1.25 μM, 2.5 μM, 5 μM, or 10 μM) for differentiation for 3 days, 6 days, 14 days or more. After incubating for 6 days, cultures were fed every 2 days by removing half of the supernatant and adding fresh medium. For macrophage differentiation, monocytes were treated with medium only (Falzoni et al. 1995), with 100 ng/mL LPS (Palucka et al. 1999), 10 ng/mL GM-CSF (macrophage 1, Mφ1), or 50 ng/mL M-CSF (macrophage 2, Mφ2) for 6 days (Verreck et al. 2004). Monocyte-derived DCs were generated with 1,000 U/mL GM-CSF and 500 units/mL IL-4 (Verreck et al. 2004) or GM-CSF and 1000 U/mL IFNα (Tosello et al. 2009). Osteoclasts were differentiated from monocytes in the presence of RANKL and M-CSF (both at 25 ng/mL) (Sorensen et al. 2007).
Fresh monocytes were plated at 1×10^6 cells/mL in RPMI 1640 medium containing 10% FBS in 48-well plates and incubated with medium only, LL-37, LPS, GM-CSF, M-CSF, M-CSF/RANKL for 6 days, or/and 14 days and 21 days. Supernatant was collected and analyzed using the Human Cytokine 30-Plex antibody bead kit from Biosource International Inc., including IL-1-β, IL-1 ra, IL-2, IL-2R, IL-4, IL-5, IL-6, IL-7, IL-8, IL-10, IL-12, IL-13, IL-15, IL-17, TNFα, IFNα, IFNγ, G-CSF, GM-CSF, MIP-1α, MIP-1β, MIG, RANTES, eotaxin, MCP-1, IP-10, VEGF, HGF, FGF-basic, and […]. Cytokine concentrations were calculated using Bio-Plex Manager 3.0 software with an eight-parameter, curve-fitting algorithm applied for standard curve calculations (Zhang et al. 2008b).

The subject of data set [2] is monocytes. The data set can be described thus: Monocyte differentiation and survival (morphology, cell number). The format is cell-based, human.
Description: as §1
Negatively isolated monocytes at the concentration of 1×10^6/mL were incubated in […] medium with 10% FBS in the presence or absence of LL-37. […] The maximum effect occurred at the dose of 5 μM LL-37 after which higher doses (≧10 μM) led to decreased cell numbers due to toxicity of LL-37 >10 μM (Zhang et al. 2008a; Johansson et al. 1998). After 14 days, the cell number of untreated controls decreased further, but the LL-37-differentiated monocytes survived with an apparent further increase in the diameter of the round adherent cells. […] There was no evidence of cell-cell fusion in the creation of giant cells. Together these analyses indicate that LL-37 can progressively differentiate monocytes into large round adherent cells at early times with giant cells and irregular shaped cells appearing at later times.
as §2
Monocytes were plated in culture media and treated with LL-37 (dose shown in the figures), LPS (100 ng/mL), GM-CSF (10 ng/mL), M-CSF (50 ng/mL), GM-CSF (1,000 U/mL)/IL-4 (500 units/mL), GM-CSF (1,000 U/mL)/IFNα (1,000 U/mL), or MCSF/RANKL (both at 25 ng/mL) and photographed with the Leica DMI 3000B (Leica Microsystems Inc, Bonnockburn, Ill. 60015) inverted microscope.

Data set [3] relates to monocytes. Kind of data set: Bone resorption assay on BioCoat Osteologic Discs (phase contrast, SEM, von Kossa). The format is cell-based, human. How it is done: The resorbing activity was evaluated by using BioCoat™ Osteologic™ Discs purchased from BD Biosciences as a mineral matter in 24-well plate. […] The plates were washed by rinsing distilled water and pit formation was observed by light microscopy (Yuasa et al. 2007) and scanning electron microscopy (SEM). […]
BioCoat™ Osteologic™ Discs fixed in 2.5% glutaraldehyde in 0.1 M phosphate buffer, pH 7.2 (buffer A) for 1 hour from bone resorption assay were washed three times in buffer A, postfixed with 1% osmium tetroxide in buffer A, then dehydrated in graded ethanol. The 100% ethanol solution was then replaced by propylene oxide, and the cells were embedded in Eponate. Thin sections were stained with uranyl acetate and lead citrate and examined with a FEI TECNAI G2 electron microscope.
Discs were photographed using phase contrast microscopy (magnification 200×).

In data set [4] the test system is monocytes. To be noted: cited from earlier work.
For data set [5], the system named is monocytes. The data set can be described thus: Phagocytosis of fluorescent labeled latex beads. As to conditions: 6-day differentiated cells, beads 1:500, 1 hour at 37° C. It counts as cell-based, human. How it is done:
6-day LL-37-, medium-, LPS-, GM-CSF-, and M-CSF-differentiated monocytes (1×10^6/mL) in tissue culture medium supplemented with 10% FBS in a 24-well plate were mixed with fluorescent labeled latex beads at a multiplicity ratio of 1:500, and incubated for 1 hour at 37° C. After being washed three times, cells were analyzed using FACSCanton II and Flowjo software.

Data set [6] deals with monocytes. Kind of data set: Flow cytometry of cell surface markers. It counts as cell-based, human. To be noted: 6 days. An excerpt: For cell surface staining, cells were washed with PBS, blocked with 10% human serum in PBS, stained with isotype controls and antibodies described in the figures, washed 3 times with 1% BSA PBS, and analyzed with a FACSCanton II. For intracellular staining, cells were washed with PBS, fixed with 1% paraformaldehyde in PBS, permeabilized in PBS buffer containing 0.1% saponin (Sigma-Aldrich) and 2% BSA, and stained with primary isotype controls and antibodies shown in the figures. After washing with PBS containing 1% BSA and 0.1% saponin, cells were stained with secondary Alexa 488 conjugated antibodies. Stained cells were assessed with a FACSCanton II cytometer, and analyzed using Flowjo software.

On to “GM-CSF: Recombinant human GM-CSF, produces macrophage 1 (Mφ1) [reference compound]”, for which, in the data set on monocytes [1], the FGF-Basic release is on record as 10.85 ± 0.22, the G-CSF release stood at 74.85 ± 2.60, the HGF release is 505.18 ± 118.32 and the IFN-α release was determined as 14.33 ± 1.27. In the data set with monocytes [1], this molecule displayed an IFN-γ release of 13.5 ± 0.47, an IL-2R release of 47.16 ± 1.23, an IL-4 release of 11.82 ± 0.98 and an IL-7 release of 26.89 ± 0.16. In the data set on monocytes [1], the MCP-1 release is listed as 15362.1 ± 7902.6, the MIG release amounted to 17.21 ± 1.30, the MIP-1α release is recorded as 72.20 ± 6.18 and the MIP-1β release is 70.42 ± 19.71. In the data set with monocytes [1], this molecule came in with an RANTES release of 5.42 ± 1.85 and a VEGF release of 15.88 ± 2.99.
For LL-37, the “doses that led to decreased cell numbers” value in the data set with monocytes [2] is ≥ 10 µM. The “cell number versus untreated controls” value in the data set with monocytes [2] (5 μM, 6 days) is “significantly higher than untreated controls”. Further, in the data set with monocytes [2] (6 days of treatment), the cell morphology entry is reported as “differentiated into large round adherent cells”. Moreover, the “survival in terms of cell numbers” value in the data set on monocytes [2] (after 28 days, versus M-CSF/RANKL-derived osteoclasts) is “survive better than M-CSF/RANKL-derived osteoclasts”. For the same molecule, the “dose of maximum effect” value in the data set with monocytes [2] (monocyte differentiation and cell number) amounted to 5 µM. The “structures formed on Osteologic Discs” value with monocytes [3] (3 weeks, cells removed by bleach, LL-37 5 μM, M-CSF/RANKL both 25 ng/mL) was “formed refractile specks on the discs instead of classical absorption pits”. Further, in the data set with monocytes [3] (5 weeks of co-culture), the “von Kossa staining of granules (mineralization)” value was “positive von Kossa staining”. Also, the “IL-1ra, IL-10, IL-12, IP-10, GM-CSF production in response to LPS” value in the data set with monocytes [1] (6-day cells, 100 ng/mL LPS 18 hours, versus M-CSF/RANKL-differentiated monocytes) is “increased production”. Also, in the data set with monocytes [1] (6 days), the “IL-1ra release versus other macrophage lineages” value is “highest levels”, the “IL-1β release versus other macrophage lineages” value is “lowest level”, the “IL-6 release versus macrophages generated by the other methods” value is “significantly less” and the “IP-10 release versus macrophages generated by the other methods” value is listed as “increased”. Further, in the data set with monocytes [1] (all time points analyzed), the “IL-1ra release versus osteoclasts” value is “higher levels” and the “IL-1β, IL-6, MCP-1 release versus osteoclasts” value was “lower levels”. In addition, in the data set on monocytes [1], the FGF-Basic release was determined as 10.28 ± 0.66, the G-CSF release amounted to 51.79 ± 3.38, the GM-CSF release is listed as 3.96 ± 0.30 and the HGF release was 772.94 ± 126.71. In the data set with monocytes [1], the IFN-α release is given as 9.93 ± 0.14, the IFN-γ release is recorded as 12.13 ± 0.88, the IL-2R release stood at 32.38 ± 7.04 and the IL-4 release is listed as 7.16 ± 0.59. Besides, in the data set with monocytes [1], the IL-7 release came to 11.93 ± 1.96, the MCP-1 release is 7720.3 ± 972.2, the MIG release came to 7.16 ± 1.31 and the MIP-1α release came to 53.17 ± 12.97. In the data set with monocytes [1], the MIP-1β release was 72.41 ± 9.86, the RANTES release was found to be 10.24 ± 3.87 and the VEGF release amounted to 3.88 ± 0.41. Moreover, the “toxicity of LL-37” value in the data set with monocytes [4] was > 10 µM. For the same molecule, the phagocytic function entry in the data set with monocytes [5] is given as “retain their phagocytic function”. In the data set with monocytes [6], the “expression of CD163, DC-SIGN, CD14 versus other macrophage lineages” value is given as “lower levels”.

B1: M-CSF: Recombinant human M-CSF, produces macrophage 2 (Mφ2) (protein, UniProt P09603 33-554, looked up)
Macrophage colony-stimulating …: EEVSEYCSHMIGSGHLQSLQRLIDSQMETSCQITFEFVDQEQLKDPVCYLKKAFLLVQDIMEDTMRFRDNTPNAIAIVQLQELSLRLKSCFTKDYEEHDKACVRTFYETPLQLLEKVKNVFNETKNLLDKDWNIFSKNCNNSFAECSSQDVVTKPDCNCLYPKAIPSSDPASVSPHQPLAPSMAPVAGLTWEDSEGTEGSSLLPGEQPLHTVDPGSAKQRPPRSTCQSFEPPETPVVKDSTIGGSPQPRPSVGAFNPGMEDILDSAMGTNWVPEEASGEASEIPVPQGTELSPSRPGGGSMQTEPARPSNFLSASSPLPASAKGQQPADVTGTALPRVGPVRPTGQDWNHTPQKTDHPSALLRDPPEPGSPRISSLRPQGLSNPSTLSAQPQLSRSHSSGSVLPLGELEGRRSTRDRRSPAEPEGGPASEGAARPLPRFNSVPLTDTGHERQSEGSFSPQLQESVFHLLVPSVILVLLAVGGLLFYRWRRRSHQEPQRADSPLEQPEGSPLTQDDRQVELPV
In the data set on monocytes [1], B1 returned an FGF-Basic release of 11.54 ± 0.31, a G-CSF release of 75.71 ± 5.78, a GM-CSF release of 25.2 ± 5.51 and an HGF release of 664.33 ± 112.85. In the data set with monocytes [1], this molecule had an IFN-α release of 19.83 ± 1.19, an IFN-γ release of 14.67 ± 1.06, an IL-2R release of 44.62 ± 4.89 and an IL-4 release of 11.07 ± 0.95. In the data set with monocytes [1], this molecule gave an IL-7 release of 24.83 ± 1.68, an MCP-1 release of 34236.5 ± 1606.8, an MIG release of 15.39 ± 2.01 and an MIP-1α release of 41.62 ± 2.63. In addition, in the data set with monocytes [1], the MIP-1β release amounted to 47.26 ± 1.46, the RANTES release is given as 10.19 ± 1.38 and the VEGF release turned out to be 22.12 ± 1.39.
